Assay results: publication PMC9598883, “An Optimized Workflow for the Discovery of New Antimicrobial Compounds Targeting Bacterial RNA Polymerase Complex Formation” (Antibiotics, 2022)
≈ marks a conversion by molar mass, not a printed value.

Assays:
β′ subunit (RNAP) = tested on: β′ subunit (RNAP); design: method as in PMID 26764017, PMID 23751807; details: cited from earlier work
B. subtilis WB800N = test: MIC assay, B. subtilis; format: cell-based, Bacillus subtilis; details: for MIC: Bacillus subtilis, WB800N
Experimental: (§1) Growth inhibition tests and minimum inhibitory concentration (MIC) assay on the gram-positive B. subtilis WB800N strain (nprE aprE epr bpr mpr::ble nprB::bsr Δvpr wprA::hyg cm::neo; NeoR) (MoBiTec GmbH, Lotzestraße, Göttingen, Germany) and on the gram-negative nonpathogenic E. coli DH10 T1R strain (F-mcrA Δ(mrr-hsdRMS-mcrBC) Φ80lacZ ΔM15 ΔlacX74 recA1 endA1 araD139Δ(ara, leu)7697 galU galK λ-rpsL nupG) (Invitrogen, Waltham, MA, USA) were performed as described in Sartini et al..
(§2) Antimicrobial activity was determined by means of the minimum inhibitory concentration (MIC) assay, according to the Clinical & Laboratory Standards Institute (CLSI) guidelines described in ([37]). The assays were performed in 96-well microplates in 20% MH broth in PBS. A 2.5 × 10^5 CFU/mL medium-phase bacterial suspension in 20% MH broth was used and the microplates were incubated at 37 °C for 24 h. […] The results were derived from at least three independent experiments conducted in duplicate.

[1] = molecular target: T1, β′–σ^70 PPI (GST-β′ aa 1–334 / His-tagged σ^70) (Escherichia coli, UniProt P0A8T7); test: Competitive ELISA of β′–σ^70 interaction; format: binding, E. coli; details: for IC50: read-out: Binding Inhibition IC50 ± SD; for inhibition at 100 µM: fixed concentration of 100 μM, read-out: β′–σ70 binding inhibition, ELISA 100 μM (percentage inhibition ± SD)
T1 construct: 50 nM GST-β′ (aa 1–334); made in house; host or cells: bacterial expression (pET28-b / pGEX4-T3 vectors)
T1 sequence (P0A8T7 1-334): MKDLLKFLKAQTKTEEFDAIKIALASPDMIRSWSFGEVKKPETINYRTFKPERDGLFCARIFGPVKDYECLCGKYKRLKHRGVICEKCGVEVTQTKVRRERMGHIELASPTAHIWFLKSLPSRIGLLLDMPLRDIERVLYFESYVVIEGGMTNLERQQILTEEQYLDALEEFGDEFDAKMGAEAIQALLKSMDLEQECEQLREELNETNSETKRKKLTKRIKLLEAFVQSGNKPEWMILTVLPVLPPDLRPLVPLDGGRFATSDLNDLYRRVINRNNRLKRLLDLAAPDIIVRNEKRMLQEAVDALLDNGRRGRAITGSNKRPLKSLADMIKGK
Experimental: In this in vitro set-up, individual candidate molecules (each at 100 µM concentration) were incubated with β’ before the addition of σ^70 and assessment of interaction reconstitution with an antibody directed against the σ^70 fusion tag. Eighteen of the 28 yBRET-positive compounds were thus confirmed as true inhibitors of the β’–σ^70 PPI (i.e., they inhibited the interaction by at least 50%); their structures and percentage inhibition values are reported in Table S1.
The production of recombinant proteins, the standard ELISA, and the “reverse” ELISA were performed following the protocols described in Sartini et al.. The full-length sequence coding for E. coli σ^70 was cloned into a modified pET28-b in-frame with an N-terminal 6xHis tag-sequence and was expressed in LB medium for 3 h at 30 °C following addition of 1 mM isopropyl-β-D-thiogalactopyranoside (IPTG).
The RNAP β’ 1–334 aa. coding sequence was cloned into a modified pGEX4-T3 expression vector (Amersham Biosciences, Amersham, Buckinghamshire, England) and was expressed for 24 h at 20 °C under auto-induction conditions (Auto Induction Medium, AIM-LB broth base; ForMedium™, Swaffham, Norfolk, England). Due to the failure of affinity purification on a glutathione-Sepharose column, the unfractionated whole cell supernatant was used directly as a GST-tagged source for ELISA.
For the standard ELISA, His-tagged- σ^70 was diluted to 250 nM with PBS and 100 μL of the resulting solution was added to the wells of SpectraPlate-96 HB microtitre plates (PerkinElmer, Waltham, MA, USA). After an overnight incubation at 4 °C, the wells were washed with PBS and blocked at room temperature for 2 h with 400 μL of 1% (w/v) BSA dissolved in PBS. Subsequently, 100 μL of supernatant diluted in PBS containing 50 nM GST-β′ (aa 1–334) was incubated for 10 min at 37 °C with 2.5 μL of each compound dissolved in DMSO at different concentrations (or with 2.5 μL of DMSO). The addition first of the polyclonal rabbit anti-GST primary antibody (1:2000 in PBS) (Abcam, Cambridge, Cambridgeshire, England) and after incubation, of the horseradish peroxidase-conjugated goat anti-rabbit secondary antibody diluted 1:20,000 in PBS (Invitrogen™ by Life Technologies™, Carlsbad, CA, USA) allowed the detection of the interaction using the substrate for 2,2’-Azino-bis (3-Ethylbenzthiazoline-6-Sulphonic Acid) peroxidase (ABTS; SeraCare Life Sciences, Milford, MA, USA). The signal resulting from the oxidation of ABTS was determined by measuring the absorbance at 415 nm with a microplate reader (iMark™ Microplate Absorbance Reader; Bio-Rad, Hercules, CA, USA).

E. coli DH10T1R = test: MIC assay, E. coli; format: cell-based, Escherichia coli; details: in the presence of PMBN (2 μg/mL)
Experimental: as §1, §2

E. coli (DH10T1R strain) = test: Bacterial growth inhibition assay, E. coli; format: cell-based, Escherichia coli; details: for inhibition at 100 µM: 8 h, in the presence of PMBN (2 μg/mL)
Description: (§3) To avoid the characterization of hit compounds lacking antibacterial activity, we subsequently tested the ability of the 18 ELISA-validated compounds to inhibit bacterial growth, using the previously identified indol-3-yl-urea derivative 4 as a reference. Two nonpathogenic bacteria were employed for this assay: the gram-positive B. subtilis (WB800N strain) and the gram-negative E. coli (DH10T1R strain). […] The remaining twelve compounds might have been unable to cross the bacterial membrane or were modified and/or extruded from the cell. […] This additional assay, which was conducted on a wild-type (W303) rather than on the hyperpermeable Δerg6 strain, is not part of our streamlined antibiotic discovery workflow and was only aimed at verifying the cytotoxicity prediction reliability of yBRET.
as §1
(§4) For growth inhibition assays, bacteria were grown to exponential phase (OD600 = 0.5–0.6) and then diluted 100-fold with LB. PMBN (2 μg/mL) for E. coli was added at this stage. Yeast strain W303-1A (leu2-3,112 trp1-1 can1-100 ura3-1 ade2-1 his3-11,15) was grown at 30 °C in YPD to an OD600 of 0.5. The growth of the bacterial (or yeast) cells was monitored for 8 h in the presence of the candidate compounds dissolved in DMSO (final concentration of 5%) or an equivalent amount of DMSO as a negative control (“vehicle”). Growth inhibition assays were conducted in triplicate in 96-well plates (Microtest Plate 96 Well, F, flat base, Sarstedt, Nümbrecht, North Rhine-Westphalia, Germany) by monitoring cell growth (OD600) every 30 min with a microplate reader (TriStar^2 LB 942; Berthold Technologies, Bad Wildbad, Baden-Württemberg, Germany) for bacteria and every 1 h for yeast.

[2] = tested on: B. subtilis (WB800N strain); test: Bacterial growth inhibition assay, B. subtilis; format: cell-based, Bacillus subtilis; details: for inhibition at 100 µM: Bacillus subtilis, 8 h, read-out: Growth Inhibition at 100 μM (8 h) B. subtilis
Description: as §3, §1, §4

[3] = tested on: Saccharomyces cerevisiae (W303); test: Yeast growth inhibition assay; format: cell-based; details: wild-type W303
Description: as §3, §4

[4] = molecular target: T2, E. coli RNAPc with recombinant σ^70 (holoenzyme) (Escherichia coli, UniProt P0A8T7); test: Fluorescence-detected single-round in vitro transcription assay; format: biochemical; details: fluorescence-based assay
T2 construct: purchased New England BioLabs
T2 sequence (P0A8T7 whole entry): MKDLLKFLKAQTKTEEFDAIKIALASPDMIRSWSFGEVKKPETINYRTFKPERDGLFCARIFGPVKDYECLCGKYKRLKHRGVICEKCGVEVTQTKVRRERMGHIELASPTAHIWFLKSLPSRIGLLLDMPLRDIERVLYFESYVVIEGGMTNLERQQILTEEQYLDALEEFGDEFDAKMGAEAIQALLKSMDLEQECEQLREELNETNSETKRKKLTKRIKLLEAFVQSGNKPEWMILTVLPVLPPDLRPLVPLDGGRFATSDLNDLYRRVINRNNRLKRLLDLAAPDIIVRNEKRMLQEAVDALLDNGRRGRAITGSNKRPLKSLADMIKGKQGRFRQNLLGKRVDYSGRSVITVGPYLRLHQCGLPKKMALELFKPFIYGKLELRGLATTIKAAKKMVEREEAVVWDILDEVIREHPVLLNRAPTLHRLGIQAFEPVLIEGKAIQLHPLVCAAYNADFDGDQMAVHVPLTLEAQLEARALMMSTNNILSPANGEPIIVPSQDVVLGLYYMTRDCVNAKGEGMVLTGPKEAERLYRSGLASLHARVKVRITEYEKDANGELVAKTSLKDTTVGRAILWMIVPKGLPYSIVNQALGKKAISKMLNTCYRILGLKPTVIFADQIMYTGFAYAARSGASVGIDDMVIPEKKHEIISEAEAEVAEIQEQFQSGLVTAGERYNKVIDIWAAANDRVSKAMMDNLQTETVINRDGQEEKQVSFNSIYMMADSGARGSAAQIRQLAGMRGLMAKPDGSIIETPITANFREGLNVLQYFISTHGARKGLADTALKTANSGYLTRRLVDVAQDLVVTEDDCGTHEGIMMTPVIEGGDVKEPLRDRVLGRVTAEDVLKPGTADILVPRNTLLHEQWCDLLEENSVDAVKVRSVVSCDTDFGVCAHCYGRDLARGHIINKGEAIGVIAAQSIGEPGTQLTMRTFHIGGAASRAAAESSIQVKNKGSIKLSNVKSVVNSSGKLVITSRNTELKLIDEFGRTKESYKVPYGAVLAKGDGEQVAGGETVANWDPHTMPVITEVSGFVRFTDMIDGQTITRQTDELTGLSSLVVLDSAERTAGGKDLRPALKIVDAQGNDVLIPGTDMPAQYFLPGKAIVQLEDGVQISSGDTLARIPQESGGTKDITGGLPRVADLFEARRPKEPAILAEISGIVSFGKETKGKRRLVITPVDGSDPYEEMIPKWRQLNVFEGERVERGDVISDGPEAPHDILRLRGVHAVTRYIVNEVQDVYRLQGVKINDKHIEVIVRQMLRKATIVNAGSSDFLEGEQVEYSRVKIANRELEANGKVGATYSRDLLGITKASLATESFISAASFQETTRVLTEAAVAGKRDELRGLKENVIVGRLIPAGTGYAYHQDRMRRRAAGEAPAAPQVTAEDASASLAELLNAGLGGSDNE
T2 sequence (P0A8V2 whole entry partner): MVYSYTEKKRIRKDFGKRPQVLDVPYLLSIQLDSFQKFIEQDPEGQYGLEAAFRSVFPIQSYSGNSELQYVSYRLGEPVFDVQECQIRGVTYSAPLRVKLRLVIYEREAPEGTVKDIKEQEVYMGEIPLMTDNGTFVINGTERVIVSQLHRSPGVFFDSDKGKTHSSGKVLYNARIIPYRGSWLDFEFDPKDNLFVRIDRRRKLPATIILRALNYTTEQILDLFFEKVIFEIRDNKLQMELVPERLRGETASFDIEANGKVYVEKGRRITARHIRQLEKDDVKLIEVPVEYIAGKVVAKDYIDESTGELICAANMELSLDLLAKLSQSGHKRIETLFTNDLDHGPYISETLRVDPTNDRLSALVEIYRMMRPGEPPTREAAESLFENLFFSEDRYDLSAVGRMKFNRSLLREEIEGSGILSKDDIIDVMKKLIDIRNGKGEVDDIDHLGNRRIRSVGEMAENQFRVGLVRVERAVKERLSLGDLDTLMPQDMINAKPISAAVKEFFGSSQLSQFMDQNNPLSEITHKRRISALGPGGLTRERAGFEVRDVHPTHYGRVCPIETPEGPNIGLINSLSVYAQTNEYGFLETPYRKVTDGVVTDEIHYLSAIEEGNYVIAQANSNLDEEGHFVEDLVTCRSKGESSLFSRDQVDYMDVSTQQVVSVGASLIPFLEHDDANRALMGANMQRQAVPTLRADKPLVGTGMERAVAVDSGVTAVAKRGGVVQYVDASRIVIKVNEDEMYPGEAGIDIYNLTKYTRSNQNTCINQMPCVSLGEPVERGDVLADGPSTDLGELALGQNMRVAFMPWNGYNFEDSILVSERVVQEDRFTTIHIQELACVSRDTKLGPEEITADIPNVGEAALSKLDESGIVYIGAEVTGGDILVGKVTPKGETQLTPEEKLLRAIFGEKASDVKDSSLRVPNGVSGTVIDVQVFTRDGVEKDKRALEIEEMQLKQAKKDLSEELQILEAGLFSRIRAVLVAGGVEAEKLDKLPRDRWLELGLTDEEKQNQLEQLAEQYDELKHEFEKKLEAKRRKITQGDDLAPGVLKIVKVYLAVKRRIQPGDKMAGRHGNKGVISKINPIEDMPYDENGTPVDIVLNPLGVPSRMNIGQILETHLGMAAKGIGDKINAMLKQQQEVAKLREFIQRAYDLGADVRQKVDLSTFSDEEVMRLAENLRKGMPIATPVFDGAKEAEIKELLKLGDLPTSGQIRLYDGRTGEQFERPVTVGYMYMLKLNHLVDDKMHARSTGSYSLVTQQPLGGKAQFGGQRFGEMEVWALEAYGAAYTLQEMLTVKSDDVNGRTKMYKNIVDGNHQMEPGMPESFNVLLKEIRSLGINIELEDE
T2 sequence (P0A7Z4 whole entry partner): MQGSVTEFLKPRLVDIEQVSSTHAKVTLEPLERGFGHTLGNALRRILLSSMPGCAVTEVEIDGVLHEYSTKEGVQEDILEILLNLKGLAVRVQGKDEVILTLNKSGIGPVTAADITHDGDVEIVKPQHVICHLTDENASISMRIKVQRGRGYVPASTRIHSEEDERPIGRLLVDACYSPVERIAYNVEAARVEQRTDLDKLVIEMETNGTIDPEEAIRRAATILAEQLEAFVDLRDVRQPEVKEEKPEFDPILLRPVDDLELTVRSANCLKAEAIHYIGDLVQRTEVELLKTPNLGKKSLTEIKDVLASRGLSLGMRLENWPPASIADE
T2 sequence (P0A800 whole entry partner): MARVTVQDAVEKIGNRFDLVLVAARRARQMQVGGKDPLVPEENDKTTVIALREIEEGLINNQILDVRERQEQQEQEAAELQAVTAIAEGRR
Experimental: A single-round transcription assay was first performed at a fixed, 100 µM concentration.
A fluorescence-detected RNAP inhibition assay with the profluorescent substrate γ-[2′(2-benzothiazoyl)-6′-hydroxybenzothiazole)-ATP (γ-BBT-ATP, Jena Bioscience, Jena, Thuringia, Germany) was performed to verify the ability of the selected compounds to inhibit the specific transcription activity of bacterial RNA polymerase, using E. coli RNAPc (New England BioLabs, Ipswich, MA, USA) and recombinant His-tagged-σ^70 for holoenzyme reconstitution.
Two nM of a circular DNA template (pDSP) [38] were then added to a final volume of 7 µL and the resulting reaction mixture was incubated at 37 °C for 15 min. The pDSP template is a 6135 bp vector harboring two identical λpR promoters upstream of engineered, cytosine-lacking (C-less) DNA regions. When CTP is omitted from the reaction mixture, transcription reinitiation is prevented, and this allows for the single-round transcription of 24 nt and 70 nt long RNAs. […]
Ten µL of the reaction was transferred to a black 384-well plate (PE384fw_ProxiPlate) and fluorescence emission was read with Spark 10M, Tecan (Männedorf, canton of Zürich, Switzerland) (excitation wavelength 422 nm; emission wavelength 590 nm).

| Structure (SMILES) | Concentration interfering with in vitro transcription initiation (β′ subunit (RNAP)) | MIC B. subtilis (B. subtilis WB800N) | MIC (B. subtilis WB800N) | IC50 ([1]; dose–response ELISA) | inhibition at 100 µM [1] | MIC E. coli (E. coli DH10T1R) | Duration of antibacterial activity, E. coli (E. coli (DH10T1R strain); 50 µM) | E. coli growth inhibition over time (E. coli (DH10T1R strain); 50 µM) | inhibition at 10 µM (E. coli (DH10T1R strain); Escherichia coli, 10 µM, 8 h observation, with PMBN, read-out: E. coli growth inhibition at lowest concentration) | inhibition at 100 µM (E. coli (DH10T1R strain); Escherichia coli) | inhibition at 100 µM [2] | Growth Inhibition at 100 μM (8 h) S. cerevisiae [3] | IC50 [4] | E. coli growth inhibition (E. coli (DH10T1R strain); concentrations ≤ 100 µM) | B. subtilis growth inhibition ([2]; concentrations ≤ 100 µM) | Fold less potent than reference compound 4 (binding inhibition IC50) ([1]; dose–response ELISA) | B. subtilis growth inhibition over time ([2]; 50 µM) | Duration of antibacterial activity, B. subtilis ([2]; 50 µM) | B. subtilis growth inhibition over time ([2]; only at 100 µM) |
| --- | --- | --- | --- | --- | --- | --- | --- | --- | --- | --- | --- | --- | --- | --- | --- | --- | --- | --- | --- |
| COc1cc(OC)c2c(-c3ccc(Cl)cc3)c[nH]c2c1C(=O)NNC(=O)c1c(OC)cc(OC)c2c(-c3ccc(Cl)cc3)c[nH]c12 [GKL003] | nanomolar concentrations | – | – | – | – | – | – | – | – | – | – | – | – | – | – | – | – | – | – |
| N#Cc1cc2cnccc2c2[nH]c3ncc(F)cc3c12 [Compound 7] | – | did not inhibit B. subtilis growth | > 100 µM | 8.56 ± 1.82 µM | 86 ± 9% | 0.78 µM | 4 h | almost completely inhibited | 38% | 66% | 13% | 7% | – | – | – | – | – | – | – |
| COc1ccc(-c2ccc(-c3oc4cc(OC(C)=O)ccc4c3OC(C)=O)cc2)cc1OC [Compound 9] | – | – | > 100 µM | 13.9 ± 1.86 µM | 100% | >100 µM | – | – | – | 24% | 24% | 0% | 71 ± 2.46 µM | failed to exert any appreciable inhibitory activity | failed to exert any appreciable inhibitory activity | – | – | – | – |
| O=C(CSc1nc2ccccc2[nH]1)c1ccc2[nH]c3ncc(Cl)cc3c2c1 [Compound 19] | – | – | 100 µM (≈ 39.3 µg/mL) | 40 ± 4.2 µM | 94 ± 1% | >100 µM | – | – | – | 0% | 37% | 0% | 25.7 ± 1.85 µM | – | – | 5 fold | almost completely inhibited | 4 h | significantly inhibited |
